# In patent US20120083464A1, “NEUROPROTECTIVE PROPERTIES OF 5'-METHYLTHIOADENOSINE” (priority 2009, published 2012):
# “Also recorded” adds a separate entry of the source.
# How the values were obtained:
# [1] = system: mixed cultures of neurons and astrocytes from the cerebral cortex; assay: Cell toxicity and viability assays (calcein-AM, LDH) in neuron-astrocyte co-cultures; type: cell-based; conditions: MTA 10 μM-1 mM for 24 hours
# Description: Primary neuron cultures were obtained from the cortical lobes of E18 Sprague-Dawley rat embryos according to previously described procedures (Cheung et al., 1998, Neuropharmacology 37:1419-1429). The cells were resuspended in B27 Neurobasal medium plus 10% FBS and then seeded in 24-well plates at 1-2×10^5 cells per well onto a monolayer of astrocytes which were previously prepared as described earlier (Vallejo-Illarramendi et al., 2005, Glia 50:276-279). One day later, the medium was replaced by B27-supplemented Neurobasal medium and 10% fetal bovine serum, and maintained at 37° C. and 5% CO2. Cultures were used 8-9 days after plating. Cultured neurons and astrocytes were identified using antibodies to microtubule associated protein-2 and glial fibrillary acidic protein, respectively.
# Cell death and cell viability in neuron-astrocyte co-cultures was assayed after 24 h of exposure to MTA (10 μM to 1 mM) using lactate dehydrogenase and calcein-AM assays respectively followed by fluorimetry measurements (Synergy-HT). The results are expressed as percentage of viable cells or LDH release versus controls, as the mean±SEM of at least four independent experiments performed in triplicate. […]
# [2] = system: CA1 hippocampal neurons; assay: Global ischemia (four-vessel occlusion, 10 min), Fluoro jade staining; type: in vivo, Wistar rats; conditions: P<0.01
# Protocol: Before surgical procedures, animals were fasted overnight. The rats were subjected to middle cerebral artery occlusion (MCAO) for 90 min using the intraluminal filament model as described previously (Rickhag et al, 2006; J Neurochem 96:14-29). Blood flow was monitored transcraneally with a doppler laser (Perimed). All physiologic parameters of animals included in the study were within normal ranges and included animals showing typical ischemia-induced behavioral deficits, rotational asymmetry, and dysfunctional limb placement. Rectal and body temperature was maintained at 37° C. during surgery and ischemia with a heating pad. Transient forebrain ischemia was induced by occlusion of the vertebral and common carotid arteries for 10 min according to the method described by Pulsinelli and Brierley (1979; Stroke 10, 267-272.). Criteria for forebrain ischemia were bilateral loss of the righting reflex, paw extension and mydriasis. […]
# The animals were treated with MTA (30 or 100 mg/kg i.p.), twice daily reconstituted in Tris 300 mM, or placebo (Tris 300 mM) starting at 30 min of the onset of ischemia. […]
# [3] = system: oligodendrocytes derived from the optic nerve; assay: MTA toxicity profile in cultured oligodendrocytes (calcein-AM); type: cell-based; conditions: MTA 1 μM-3 mM for 24 hours
# Protocol: Primary cultures of oligodendrocytes derived from optic nerves of 12-d-old Sprague Dawley rats were obtained as described previously (Barres et al., 1992). Cells were seeded into 24-well plates bearing 12-mm-diameter coverslips coated with poly-D-lysine (10 μg/ml) at a density of 5×10^3 cells per well. Cells were maintained at 37° C. and 5% CO2 in a chemically defined medium (Barres et al., 1992, Cell 70:31-46). After 2-4 d in vitro, cultures were composed of at least 98% O4/galactocerebroside-positive (O4/Ga1C_) cells; the majority of the remaining cells were stained with antibodies to glial fibrillary acidic protein (GFAP). No A2B5+ or microglial cells were detected in these cultures (Alberdi et al., 2002, Neurobiol Dis 9:234-243).
# Cell toxicity and viability assays were performed as described previously (Sánchez-Gómez and Matute, 1999, Neurobiol Dis 6:475-485). For evaluating the MTA toxicity, cells at 2-4 d in culture were exposed for 24 hours to that drug and cell viability assessed using calcein-AM (Invitrogen). […] Twenty-four hours after drug application, cell viability was assessed using calcein-AM (Invitrogen). The total number of surviving cells on each coverslip emitting calcein fluorescence was counted, and results were expressed as percentage of cell death versus control. Results were expressed as the mean±SEM of at least three independent experiments performed in duplicate. […]
# [4] = system: isolated optic nerve; assay: Simulated ischemia (OGD) in isolated optic nerves, LDH release; parameters: species or system Sprague Dawley rats; conditions: 1 h ischemia with iodoacetate + 2 h reperfusion; MTA 100-300 μM
# Protocol: Ischemic damage was induced by substituting […] and adding 1 mM of the glyocolytic blocker iodoacetate (1 mM) for 1 h followed by 2 h of reperfusion in […] aCSF. Optic nerves during ischemia and reperfusion were incubated with vehicle, for controls, and with MTA or glutamate receptor antagonists, and subsequently processed for LDH release assay. The results are the mean±SEM of at least three different experiments performed in duplicate.
# Cell viability in oligodendrocyte cultures was assayed after 24 h of exposure to MTA (1 μM to 3 mM) calcein-AM assays respectively followed by fluorimetry measurements (Synergy-HT). Oligodendrocyte protection from excitotoxicity and optic nerve damage after ischemia (1 hour+2 hours reperfusion) were examined using lactate dehydrogenase release assays in the presence or absence of MTA (100-300 μM for 3 hours).
# [5] = system: RN22 cells; assay: Hydrogen peroxide stress in RN22 cells, ROS levels; type: cell-based, rat; conditions: hydrogen peroxide 100 μM, different time periods
# Protocol: RN22 cells were maintained at 37° C. in DMEM medium supplemented with 10% of fetal bovine serum and penicillin/streptomycine. The assays against stress with copper sulphate were conducted using 24-well plates in DMEM medium without serum. After allowing cell adherence for three days, NGF (100 ng/ml) or MTA was added to different concentrations half an hour before the copper sulphate (150 μM). After twenty-four hours, cell viability was quantified by MTT assay and ROS production was quantified by fluorescence. Assays against stress with hydrogen peroxide were conducted in the same way as the foregoing, using 100 μM hydrogen peroxide as a stress-producing agent.
# We determined the quantity of ROS produced by the cells after stress with and without treatment. 2′,7′- dichlorodihydrofluorescein (DCFH) is generally used to measure oxidative stress in cells. The cells were incubated with DCFH-DA (10 μM) at 37° C. for thirty minutes. After incubation, the cells were washed twice with PBS and lysed by adding 10 mM Tris-HCL buffer containing 0.5% of Tween 20. The homogenates were then centrifuged at 10,000 g for ten minutes to separate the cell residue and […] fluorescence in the supernatant was measured using a fluorometer (excitation wavelength 492-495 nm, emission wavelength 517-527 nm) (Invitrogen).
smiles,measurement,setting,value
"CSC[C@H]1O[C@@H](n2cnc3c(N)ncnc32)[C@H](O)[C@@H]1O [MTA, 5′-methylthioadenosine]",astrocyte resistance and viability to MTA,[1],resistant and viable
same,toxicity (cell viability by calcein fluorescence; cell death by LDH release),[1]; neurons in co-culture,very low; also recorded: not toxic
same,CA1 hippocampal neuron cell death (Fluoro jade fluorescence),"[2]; 10 min global ischemia, MTA i.p. twice daily from 30 min post-ischemia, 7 days",protects
same,lower levels of dying cells in the CA1 region versus vehicle (Fluoro jade),"[2]; MTA 30 mg/kg i.p. twice daily, 7 days of reperfusion",about 50%
same,MTA concentrations at which significant toxicity was observed (calcein-AM),[3],above 300 μM
same,OGD/ischemia-induced damage in isolated optic nerve (LDH release),[4],similarly protective
same,ROS production under hydrogen peroxide stress,[5],capable of reducing ROS production
